# Key:
# [1] = test system: kidney tissue of g-ddY mice; assay: Ingenuity Pathway Analysis (IPA) canonical pathways, g-ddY kidney RNA-seq; type: in vivo, mouse; conditions: 30 mg/kg/day
# ET-1 stimulated HRMC = assay: Hallmark gene set enrichment in ET-1 stimulated HRMC treated with atrasentan; conditions: g-ddY and HRMC model systems; HRMC: atrasentan 1 nM and 25 nM with ET-1
structure (smiles),measurement,setting,value
"CCCCN(CCCC)C(=O)CN1C[C@H](c2ccc3c(c2)OCO3)[C@@H](C(=O)O)[C@@H]1c1ccc(OC)cc1 [atrasentan, (2R,3R,4S)-4-(1,3-benzodioxol-5-yl)-1-[2-(dibutylamino)-2-oxoethyl]-2-(4-methoxyphenyl)pyrrolidine-3-carboxylic acid]",IL-6 signaling,[1],reduced
same,NF-κB signaling,[1],reduced
same,PDGF signaling,[1],reduced
same,expression of hallmark gene sets (negative enrichment scores),ET-1 stimulated HRMC,under-expression
